Test results: ChEMBL document CHEMBL1949583, “Credneramides A and B: neuromodulatory phenethylamine and isopentylamine derivatives of a vinyl chloride-containing fatty acid from cf. Trichodesmium sp. nov” (J Nat Prod, 2012)

Assay: Neuromodulatory activity in mouse cerebrocortical neurons assessed as inhibition of calcium oscillation
Type: functional
Details: Cerebral cortex neuron

Q: For `CCC/C(=C\Cl)C/C=C/CCC(=O)NCCc1ccccc1` [CREDNERAMIDE A], which IC50 is on record?
A: 4 µM

Q: For `CCC/C(=C\Cl)C/C=C/CCC(=O)NCCC(C)C` [CREDNERAMIDE B], which IC50 is on record?
A: 3.9 µM

Q: For `CCC/C(=C\Cl)C/C=C/CCC(=O)O` [CREDNERIC ACID], which IC50 is on record?
A: 8.2 µM
